Earlier results as cited in PubChem BioAssay AID1259409 (Chemical Carcinogenesis Research Information System (CCRIS), 2018).

System: rodent chemically induced tumor inhibition, incidence and multiplicity
Assay: CCRIS tumor inhibitor studies
Conditions: Route [Inhibitor]: ORAL, Species: RAT

CCCCCCOc1cc(C)c(O)c(C)c1C
tumour outcome (control, treated, inhibition, significance) (Carcinogen: 1,2-DIMETHYLBHYDRAZINE [540-73-8], Dose [Inhibitor]: 0.5% IN DIET FOR 32 WK BEGINNING 1 WK POST LAST CARCINOGEN DOSE (STUDY DURATION: 36 WK), Strain/Sex: F344/MALE, Target Tissue: Type of Lesion: COLON: ADENOMA OR CARCINOMA, Dose [Carcinogen]: 40 MG/KG BW 1X/WK FOR 4 WK (STUDY DURATION: 36 WK), Promoter: 2-AMINO-1-METHYL-6-PHENYLIMIDAZO[4,5-B]PYRIDINE [105650-23-5]): 20/21 (95%), 19/19 (100%), -5%, not significant
tumour outcome (control, treated, inhibition, significance) (Carcinogen: 2-AMINO-1-METHYL-6-PHENYL-1H-IMIDAZO[4,5-B]PYRID INE, 105650-23-5, Dose [Inhibitor]: 0, 0.5% IN THE DIET FOR 52 WK (STUDY DURATION: 52 WK), Strain/Sex: F344/FEMALE, Target Tissue: Type of Lesion: MAMMARY GLAND: ADENOCARCINOMA FIBROADENOMA, Dose [Carcinogen]: 0.02% IN THE DIET FOR 52 WK, Promoter: NONE USED): 2/20 (10%), 0/21 (0%), 100%, not significant
tumour outcome (control, treated, inhibition, significance) (Carcinogen: 2-AMINO-1-METHYL-6-PHENYL-1H-IMIDAZO[4,5-B]PYRID INE, 105650-23-5, Dose [Inhibitor]: 0, 0.5% IN THE DIET FOR 52 WK (STUDY DURATION: 52 WK), Strain/Sex: F344/FEMALE, Target Tissue: Type of Lesion: MAMMARY GLAND: ADENOCARCINOMA, Dose [Carcinogen]: 0.02% IN THE DIET FOR 52 WK, Promoter: NONE USED): 8/20 (40%), 1/21 (5%), 88%, p< 0.01
tumour outcome (control, treated, inhibition, significance) (Carcinogen: 2-AMINO-1-METHYL-6-PHENYLIMIDAZO[4,5-B]PYRIDINE, 105650-23-5, Dose [Inhibitor]: 0, 0.5% IN DIET FOR 52 WK CONCURRENTLY WITH CARCINOGEN TREATMENT (STUDY DURATION: 52 WK), Strain/Sex: F344/FEMALE, Target Tissue: Type of Lesion: LARGE INTESTINE: ADENOMA OR CARCINOMA, Dose [Carcinogen]: 0.02% IN DIET FOR 52 WK, Promoter: NONE USED): 2/18 (11%), 0/21 (0%), 100%, not calculated
tumour outcome (control, treated, inhibition, significance) (Carcinogen: 2-AMINO-1-METHYL-6-PHENYLIMIDAZO[4,5-B]PYRIDINE, 105650-23-5, Dose [Inhibitor]: 0, 0.5% IN DIET FOR 52 WK CONCURRENTLY WITH CARCINOGEN TREATMENT (STUDY DURATION: 52 WK), Strain/Sex: F344/FEMALE, Target Tissue: Type of Lesion: MAMMARY GLAND: ADENOCARCINOMA, Dose [Carcinogen]: 0.02% IN DIET FOR 52 WK, Promoter: NONE USED): 8/20 (40%), 1/21 (5%), 88%, p<0.01
tumour outcome (control, treated, inhibition, significance) (Carcinogen: DIETHYLNITROSAMINE, 55-18-5, N-METHYL-N-NITROSOUREA, 684-63-5, N-BUTYL-N-(4-HYDROXYBUTYL)NITROSAMINE, 3817-11-6, DIMETHY, Carcinogen: DIETHYLNITROSAMINE, 55-18-5, N-METHYL-N-NITROSOUREA, 684-63-5, N-BUTYL-N-(4-HYDROXYBUTYL)NITROSAMINE, 3817-11-6, DIMETHY, Dose [Inhibitor]: 0, 1% IN THE DIET FOR 30 D BEGINNING 1 D PRIOR TO CARCINOGEN TREATMENT (STUDY DURATION: 28 WK), Strain/Sex: F344/MALE, Target Tissue: Type of Lesion: SMALL INTESTINE: CARCINOMA, Dose [Carcinogen]: 100 MG/KG BW DEN ONCE FOLLOWED BY 20 MG/KG BW MNU 4 TIMES AND 0.05% BBN IN DRINKING WATER DURING FIRST 2 WK THEN 40 MG/K, Promoter: NONE USED): 7%, 14%, -100%, not significant
tumour outcome (control, treated, inhibition, significance) (Carcinogen: DIETHYLNITROSAMINE, 55-18-5, N-METHYL-N-NITROSOUREA, 684-93-5, N-BUTYL-N-(4-HYDROXYBUTYL)NITROSAMINE, 3817-11-6, DIMETHY, Carcinogen: DIETHYLNITROSAMINE, 55-18-5, N-METHYL-N-NITROSOUREA, 684-93-5, N-BUTYL-N-(4-HYDROXYBUTYL)NITROSAMINE, 3817-11-6, DIMETHY, Dose [Inhibitor]: 0, 1% IN THE DIET FOR 24 MO BEGINNING 1 DAY POST CARCINOGEN TREATMENT (STUDY DURATION: 28 WK), Strain/Sex: F344/MALE, Target Tissue: Type of Lesion: LARGE INTESTINE: CARCINOMA, Dose [Carcinogen]: 100 MG/KG BW DEN ONCE FOLLOWED BY 20 MG/KG BW MNU 4 TIMES AND 0.05% BBN IN DRINKING WATER DURING FIRST 2 WK THEN 40 MG/K, Promoter: NONE USED): 7%, 7%, 0%, not significant
tumour outcome (control, treated, inhibition, significance) (Carcinogen: DIETHYLNITROSAMINE, 55-18-5, N-METHYL-N-NITROSOUREA, 684-93-5, N-BUTYL-N-(4-HYDROXYBUTYL)NITROSAMINE, 3817-11-6, DIMETHY, Carcinogen: DIETHYLNITROSAMINE, 55-18-5, N-METHYL-N-NITROSOUREA, 684-93-5, N-BUTYL-N-(4-HYDROXYBUTYL)NITROSAMINE, 3817-11-6, DIMETHY, Dose [Inhibitor]: 0, 1% IN THE DIET FOR 24 WK BEGINNING 1 D POST CARCINOGEN TREATMENT (STUDY DURATION: 28 WK), Strain/Sex: F344/MALE, Target Tissue: Type of Lesion: URINARY BLADDER: PAPILLOMA, Dose [Carcinogen]: 100 MG/KG BW DEN ONCE FOLLOWED BY 20 MG/KG BW MNU 4 TIMES AND 0.05% BBN IN DRINKING WATER DURING FIRST 2 WK THEN 40 MG/K, Promoter: NONE USED): 7%, 0%, 100%, not significant
tumour outcome (control, treated, inhibition, significance) (Carcinogen: DIETHYLNITROSAMINE, 55-18-5, N-METHYL-N-NITROSOUREA, 684-93-5, N-BUTYL-N-(4-HYDROXYBUTYL)NITROSAMINE, 3817-11-6, DIMETHY, Carcinogen: DIETHYLNITROSAMINE, 55-18-5, N-METHYL-N-NITROSOUREA, 684-93-5, N-BUTYL-N-(4-HYDROXYBUTYL)NITROSAMINE, 3817-11-6, DIMETHY, Dose [Inhibitor]: 0, 1% IN THE DIET FOR 24 WK BEGINNING 1 DAY POST CARCINOGEN TREATMENT (STUDY DURATION: 28 WK), Strain/Sex: F344/MALE, Target Tissue: Type of Lesion: LARGE INTESTINE: ADENOMA, Dose [Carcinogen]: 100 MG/KG BW DEN ONCE FOLLOWED BY 20 MG/KG BW MNU 4 TIMES AND 0.05% BBN IN DRINKING WATER DURING FIRST 2 WK THEN 40 MG/K, Promoter: NONE USED): 27%, 0%, 100%, p<0.05
